According to ChEMBL document CHEMBL5724914, “Linking interpersonal differences in gut microbiota composition and drug biotransformation activity” (2024):

Experiments:
[1] = (§1) The drug is tested on WLS-077 corresponding to human gut metagenome with ENA study accession number: PRJEB37062 and ENA sample accession number: ERS12561750 for biotransformation under anaerobic condition. The drug concentrations were measured over 9 timepoints collected between 0 and 24 hours of incubation by liquid-chromatography-coupled mass spectrometry (LC–MS); conditions: 2 µM
[2] = human gut metagenome, 24 h, 2 µM
[3] = as §1, with “Z-019” for “WLS-077”, “rat” for “human”, “ERS12561818” for “ERS12561750”; conditions: 2 µM
[4] = as §1, with “Z-016” for “WLS-077”, “mouse” for “human”, “ERS12561815” for “ERS12561750”; conditions: 2 µM
[5] = human gut metagenome, 24 h, 2 µM; remark: listed apart in the source
[6] = as §1, with “WLS-098” for “WLS-077”, “ERS12561754” for “ERS12561750”; conditions: 2 µM
[7] = as §1, with “Z-028” for “WLS-077”, “mouse” for “human”, “ERS12561827” for “ERS12561750”; conditions: 2 µM
[8] = human gut metagenome, 24 h, 2 µM; remark: listed apart in the source
[9] = human gut metagenome, 24 h, 2 µM; remark: listed apart in the source
[10] = human gut metagenome, 24 h, 2 µM; remark: listed apart in the source
[11] = as §1, with “Z-030” for “WLS-077”, “mouse” for “human”, “ERS12561829” for “ERS12561750”; conditions: 2 µM
[12] = as §1, with “Z-014” for “WLS-077”, “rat” for “human”, “ERS12561814” for “ERS12561750”; conditions: 2 µM
[13] = as §1, with “WLS-007” for “WLS-077”, “ERS12561742” for “ERS12561750”; conditions: 2 µM
[14] = as §1, with “Z-013” for “WLS-077”, “rabbit” for “human”, “ERS12561813” for “ERS12561750”; conditions: 2 µM
[15] = as §1, with “Z-011” for “WLS-077”, “mouse” for “human”, “ERS12561811” for “ERS12561750”; conditions: 2 µM
[16] = as §1, with “Z-020” for “WLS-077”, “rabbit” for “human”, “ERS12561819” for “ERS12561750”; conditions: 2 µM
[17] = human gut metagenome, 24 h, 2 µM; remark: listed apart in the source
[18] = human gut metagenome, 24 h, 2 µM; remark: listed apart in the source
[19] = as §1, with “Z-023” for “WLS-077”, “to” for “to human gut”, “ERS12561822” for “ERS12561750”; conditions: 2 µM
[20] = human gut metagenome, 24 h, 2 µM; remark: listed apart in the source
Note: call rule not given here.

Bacterial Biotransformation [1]	Bacterial Biotransformation [2]	Bacterial Biotransformation [3]	Bacterial Biotransformation [4]	Bacterial Biotransformation [5]	Bacterial Biotransformation [6]	Bacterial Biotransformation [7]	Bacterial Biotransformation [8]	Bacterial Biotransformation [9]	Bacterial Biotransformation [10]	Bacterial Biotransformation [11]	Bacterial Biotransformation [12]	Bacterial Biotransformation [13]	Bacterial Biotransformation [14]	Bacterial Biotransformation [15]	Bacterial Biotransformation [16]	Bacterial Biotransformation [17]	Bacterial Biotransformation [18]	Bacterial Biotransformation [19]	Bacterial Biotransformation [20]	Structure (SMILES)
Compound metabolized	Compound metabolized	Compound NOT metabolized	Compound metabolized	Compound metabolized	Compound metabolized	Compound NOT metabolized	Compound metabolized	Compound metabolized	Compound metabolized	Compound NOT metabolized	Compound NOT metabolized	Compound metabolized	Compound NOT metabolized	Compound NOT metabolized	Compound metabolized	Compound metabolized	Compound metabolized	Compound metabolized	Compound metabolized	O=C(O)CCc1nc(-c2ccccc2)c(-c2ccccc2)o1 [OXAPROZIN]
Compound metabolized	Compound metabolized	Compound NOT metabolized	Compound NOT metabolized	Compound metabolized	Compound metabolized	Compound NOT metabolized	Compound metabolized	Compound metabolized	Compound NOT metabolized	Compound NOT metabolized	Compound NOT metabolized	Compound metabolized	Compound NOT metabolized	Compound NOT metabolized	Compound metabolized	Compound metabolized	Compound metabolized	Compound metabolized	Compound metabolized	CC(C)(C)NC[C@H](O)COc1ccccc1C1CCCC1.CC(C)(C)NC[C@H](O)COc1ccccc1C1CCCC1.O=S(=O)(O)O [PENBUTOLOL SULFATE]
Compound NOT metabolized	Compound NOT metabolized	Compound NOT metabolized	Compound NOT metabolized	Compound NOT metabolized	Compound NOT metabolized	Compound NOT metabolized	Compound NOT metabolized	Compound NOT metabolized	Compound NOT metabolized	Compound NOT metabolized	Compound NOT metabolized	Compound NOT metabolized	Compound NOT metabolized	Compound NOT metabolized	Compound NOT metabolized	Compound NOT metabolized	Compound NOT metabolized	Compound NOT metabolized	Compound NOT metabolized	CCOc1ccc(NC(C)=O)cc1 [PHENACETIN]
Compound metabolized	Compound metabolized	Compound NOT metabolized	Compound metabolized	Compound metabolized	Compound metabolized	Compound metabolized	Compound metabolized	Compound metabolized	Compound metabolized	Compound metabolized	Compound NOT metabolized	Compound metabolized	Compound metabolized	Compound metabolized	Compound metabolized	Compound metabolized	Compound metabolized	Compound metabolized	Compound metabolized	CC(C(=O)O)c1ccc2c(c1)Cc1cccnc1O2 (stereo not given) [PRANOPROFEN]
Compound NOT metabolized	Compound NOT metabolized	Compound NOT metabolized	Compound NOT metabolized	Compound NOT metabolized	Compound metabolized	Compound NOT metabolized	Compound metabolized	Compound NOT metabolized	Compound NOT metabolized	Compound NOT metabolized	Compound NOT metabolized	Compound metabolized	Compound NOT metabolized	Compound NOT metabolized	Compound NOT metabolized	Compound NOT metabolized	Compound NOT metabolized	Compound NOT metabolized	Compound metabolized	CCc1nc(N)nc(N)c1-c1ccc(Cl)cc1 [PYRIMETHAMINE]
Compound NOT metabolized	Compound NOT metabolized	Compound NOT metabolized	Compound NOT metabolized	Compound NOT metabolized	Compound NOT metabolized	Compound NOT metabolized	Compound NOT metabolized	Compound NOT metabolized	Compound NOT metabolized	Compound NOT metabolized	Compound NOT metabolized	Compound NOT metabolized	Compound NOT metabolized	Compound NOT metabolized	Compound NOT metabolized	Compound NOT metabolized	Compound NOT metabolized	Compound metabolized	Compound NOT metabolized	COc1ccccc1OCC(O)CN1CCN(CC(=O)Nc2c(C)cccc2C)CC1 (stereo not given) [RANOLAZINE]
Compound NOT metabolized	Compound NOT metabolized	Compound NOT metabolized	Compound NOT metabolized	Compound NOT metabolized	Compound NOT metabolized	Compound NOT metabolized	Compound NOT metabolized	Compound NOT metabolized	Compound NOT metabolized	Compound NOT metabolized	Compound NOT metabolized	Compound NOT metabolized	Compound NOT metabolized	Compound NOT metabolized	Compound NOT metabolized	Compound NOT metabolized	Compound NOT metabolized	Compound NOT metabolized	Compound NOT metabolized	CN(C)CCc1c[nH]c2ccc(Cn3cncn3)cc12.O=C(O)c1ccccc1 [RIZATRIPTAN BENZOATE]
Compound NOT metabolized	Compound NOT metabolized	Compound NOT metabolized	Compound NOT metabolized	Compound metabolized	Compound NOT metabolized	Compound NOT metabolized	Compound NOT metabolized	Compound NOT metabolized	Compound NOT metabolized	Compound NOT metabolized	Compound NOT metabolized	Compound NOT metabolized	Compound NOT metabolized	Compound NOT metabolized	Compound NOT metabolized	Compound NOT metabolized	Compound NOT metabolized	Compound metabolized	Compound metabolized	CCCc1nn(C)c2c(=O)[nH]c(-c3cc(S(=O)(=O)N4CCN(C)CC4)ccc3OCC)nc12.O=C(O)CC(O)(CC(=O)O)C(=O)O [SILDENAFIL CITRATE]
